Paper PMC9116648, “Synthesis and biological evaluation of thiazolidine-2-thione derivatives as novel xanthine oxidase inhibitors” (PLoS ONE, 2022)
Entries after “also recorded” stand apart in the source; their conditions may differ. Read-outs that look alike come from different tables or passages of the source.

Experiments:
[1] = biological target: T1, Xanthine oxidase (XO) (Homo sapiens, UniProt P47989); details: literature statement; cited from earlier work
[2] = biological target: T1, Xanthine oxidase (XO); assay: In vitro XO inhibitory potency (enzyme catalysis reaction, OD 295 nm); format: biochemical
Description: XO inhibitory activity was measured by enzyme catalysis reaction in vitro, with modifications. The XO solution (100 U/L) and xanthine solution (0.5 mmol/L) were prepared in PBS (10 mmol/L, pH = 7.4) and stored at 4°C. The test compounds were diluted to different concentrations with PBS. The enzyme catalysis reaction was performed in 96-well plates.

[3] = biological target: T1, Xanthine oxidase (XO); assay: Enzyme inhibitory kinetics (Lineweaver-Burk plots); format: biochemical
Description: The inhibitory mode of representative compound 6k was further investigated using enzyme inhibitory kinetic studies. XO solution (55 U/L) was mixed respectively with compound 6k (0, 5, 10, and 20 μmol/L) and incubated at 37°C for 5 min. Then, xanthine solution (0.25, 0.5, 1.0, and 2.0 mmol/L) were added to initiate the reaction at 37°C for 30 min. The reaction was carried out in a 96-well plate and the OD value were read using a microplate reader at 295 nm. The obtained data were analyzed using Microsoft Excel 2013 and transformed into Lineweaver-Burk plots using GraphPad Prism 7.0. In addition, the value of Ki and Kis could be calculated using GraphPad Prism 7.0.

[4] = S1 Table, mean of three determinations, unit inferred, read-out: IC50 mean
[5] = S1 Table, single determination 1 of 3, unit inferred, read-out: IC50 (first replicate column)
[6] = S1 Table, single determination 2 of 3, unit inferred, read-out: IC50 (second replicate column)
[7] = S1 Table, single determination 3 of 3, unit inferred, read-out: IC50 (third replicate column)
[8] = mean±SD, tested in triplicate, xanthine substrate, 37°C, PBS pH 7.4, read-out: IC50

T1 sequence (P47989 whole entry, species assumed): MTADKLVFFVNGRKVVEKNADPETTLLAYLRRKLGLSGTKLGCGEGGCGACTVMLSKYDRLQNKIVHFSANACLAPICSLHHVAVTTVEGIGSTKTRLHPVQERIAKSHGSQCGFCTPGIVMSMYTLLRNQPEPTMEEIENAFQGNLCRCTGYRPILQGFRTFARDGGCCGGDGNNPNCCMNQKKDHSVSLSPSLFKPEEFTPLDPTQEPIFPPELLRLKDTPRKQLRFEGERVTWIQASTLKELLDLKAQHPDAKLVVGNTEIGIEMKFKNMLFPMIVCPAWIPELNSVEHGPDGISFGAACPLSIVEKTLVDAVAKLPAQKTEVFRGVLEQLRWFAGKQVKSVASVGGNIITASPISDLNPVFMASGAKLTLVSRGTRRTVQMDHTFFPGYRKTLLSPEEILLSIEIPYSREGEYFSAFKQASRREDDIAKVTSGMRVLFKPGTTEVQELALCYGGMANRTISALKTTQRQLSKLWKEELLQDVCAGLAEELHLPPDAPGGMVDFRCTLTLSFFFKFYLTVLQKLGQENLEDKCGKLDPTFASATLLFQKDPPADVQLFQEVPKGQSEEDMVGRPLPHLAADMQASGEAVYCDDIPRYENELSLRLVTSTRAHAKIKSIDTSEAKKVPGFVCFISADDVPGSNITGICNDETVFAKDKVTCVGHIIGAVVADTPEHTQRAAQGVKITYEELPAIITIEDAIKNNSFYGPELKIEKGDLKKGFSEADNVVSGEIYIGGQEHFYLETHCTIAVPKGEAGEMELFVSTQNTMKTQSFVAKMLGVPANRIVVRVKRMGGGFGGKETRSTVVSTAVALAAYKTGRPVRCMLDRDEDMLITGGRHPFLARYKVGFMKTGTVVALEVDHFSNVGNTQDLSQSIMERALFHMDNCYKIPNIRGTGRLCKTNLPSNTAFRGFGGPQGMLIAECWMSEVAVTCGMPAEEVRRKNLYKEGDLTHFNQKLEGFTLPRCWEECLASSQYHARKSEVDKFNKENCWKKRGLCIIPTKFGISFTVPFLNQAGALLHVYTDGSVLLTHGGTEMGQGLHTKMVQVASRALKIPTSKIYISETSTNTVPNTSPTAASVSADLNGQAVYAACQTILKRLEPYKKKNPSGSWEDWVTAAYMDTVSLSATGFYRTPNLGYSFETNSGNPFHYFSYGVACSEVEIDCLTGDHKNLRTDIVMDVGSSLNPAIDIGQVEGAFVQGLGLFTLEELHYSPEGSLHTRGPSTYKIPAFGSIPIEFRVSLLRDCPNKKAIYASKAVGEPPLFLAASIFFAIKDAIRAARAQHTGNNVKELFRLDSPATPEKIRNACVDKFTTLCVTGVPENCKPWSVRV

Row | IC50 [2, 4] [µM] | IC50 [2, 5] [µM] | IC50 [2, 6] [µM] | IC50 [2, 7] [µM] | IC50 [2, 8] [µM] | melting point [°C] | SMILES | other results
1 | 51.6 | 49.4 | 52.2 | 53.3 | 51.6 ± 1.64 |  | S=C1SCCN1c1ccccc1 [Compound 4c, 3-phenyl-thiazolidine-2-thione] | 
2 | 114 | 122 | 109 | 110 | > 100 | 115 to 117 | S=C1SCCN1Cc1ccccc1 [Compound 4d, 3-benzyl-thiazolidine-2-thione] | 
3 | 22.9 | 19.9 | 23.5 | 25.3 | 22.9 ± 2.24 |  | CCNC(=O)N1CCSC1=S [Compound 6a, N-ethyl-2-thioxothiazolidine-3-carboxamide] | 
4 | 27.8 | 27.2 | 27.6 | 28.6 | 27.8 ± 0.63 |  | CCCNC(=O)N1CCSC1=S [Compound 6b, N-propyl-2-thioxothiazolidine-3-carboxamide] | 
5 | 19 | 21 | 17.7 | 18.4 | 19 ± 1.44 |  | CC(C)CNC(=O)N1CCSC1=S [Compound 6d, N-isobutyl-2-thioxothiazolidine-3-carboxamide] | 
6 | 10.2 | 10.6 | 8.38 | 11.7 | 10.2 ± 1.37 | 101 to 102 | O=C(Nc1ccccc1)N1CCSC1=S [Compound 6e, N-phenyl-2-thioxothiazolidine-3-carboxamide] | 
7 | 12.8 | 12.8 | 14.8 | 10.8 | 12.8 ± 1.6 | 107 to 109 | O=C(NCc1ccccc1)N1CCSC1=S [Compound 6f, N-benzyl-2-thioxothiazolidine-3-carboxamide] | 
8 | 14.5 | 17.7 | 15.1 | 10.7 | 14.5 ± 2.9 | 111 to 113 | O=C(Nc1cccnc1)N1CCSC1=S [Compound 6g, N-(pyridin-3-yl)-2-thioxothiazolidine-3-carboxamide] | 
9 | 5.19 | 5.19 | 4.02 | 6.35 | 5.19 ± 0.95 | 121 to 123 | O=C(NS(=O)(=O)c1ccccc1)N1CCSC1=S [Compound 6i, N-(phenylsulfonyl)-2-thioxothiazolidine-3-carboxamide] | 
10 | 9.76 | 11.5 | 8.48 | 9.27 | 9.76 ± 1.29 | 127 to 129 | Cc1ccc(S(=O)(=O)NC(=O)N2CCSC2=S)cc1 [Compound 6j, N-((4-methylphenyl)sulfonyl)-2-thioxothiazolidine-3-carboxamide] | 

Second part, the compound before the results:

Row | SMILES | IC50 [2, 4] [µM] | IC50 [2, 5] [µM] | IC50 [2, 6] [µM] | IC50 [2, 7] [µM] | IC50 [2, 8] [µM] | melting point [°C] | other results
11 | Oc1ncnc2[nH]ncc12 [Allopurinol] |  |  |  |  |  |  | Mode of XO inhibition [1]: competitive inhibition
12 | SC1=NCCS1 [Compound 3, thiazolidine-2-thione] | 72.2 | 74.1 | 72.3 | 70.1 | 72.2 ± 1.66 |  | 
13 | CCN1CCSC1=S [Compound 4a, 3-ethyl-thiazolidine-2-thione] | 43.5 | 43.4 | 40.9 | 46.3 | 43.5 ± 2.18 |  | 
14 | CCCN1CCSC1=S [Compound 4b, 3-propyl-thiazolidine-2-thione] | 58.2 | 50.5 | 57.2 | 66.8 | 58.2 ± 6.71 |  | 
15 | CCCCNC(=O)N1CCSC1=S [Compound 6c, N-butyl-2-thioxothiazolidine-3-carboxamide] | 30.5 | 30.1 | 33.5 | 28 | 30.5 ± 2.25 |  | 
16 | O=C(NC1CCCCC1)N1CCSC1=S [Compound 6h, N-cyclohexyl-2-thioxothiazolidine-3-carboxamide] | 9.87 | 8.25 | 11.1 | 10.3 | 9.87 ± 1.19 | 114 to 115 | 
17 | O=C(NS(=O)(=O)c1ccc(F)cc1)N1CCSC1=S [Compound 6k, N-((4-fluorophenyl)sulfonyl)-2-thioxothiazolidine-3-carboxamide] | 3.56 | 3.19 | 4.42 | 3.06 | 3.56 ± 0.61 |  | Mode of XO inhibition ([3]; Lineweaver-Burk plots): mixed-type XO inhibition; also recorded: mixed competitive inhibition; also recorded: mixed-type XO inhibitor; Intercept of Lineweaver-Burk plot ([3]; compound 6k 5 µmol/L): 1.487; Slope of Lineweaver-Burk plot ([3]; compound 6k 5 µmol/L): 3.559; Intercept of Lineweaver-Burk plot ([3]; compound 6k 10 µmol/L): 2.126; Slope of Lineweaver-Burk plot ([3]; compound 6k 10 µmol/L): 4.587; Intercept of Lineweaver-Burk plot ([3]; compound 6k 20 µmol/L): 2.357; Slope of Lineweaver-Burk plot ([3]; compound 6k 20 µmol/L): 6.098; Ki ([3]; from secondary plot of Lineweaver-Burk slopes, XO 55 U/L): 7.08 µM; XO inhibitory potency relative to allopurinol (fold more potent) ([2]; ratio of IC50 values vs allopurinol): approximately 2.5 fold
18 | Cc1nc(-c2ccc(OCC(C)C)c(C#N)c2)sc1C(=O)O [Febuxostat, reference compound] |  |  |  |  |  |  | IC50 ([2]; IC50 (first replicate column), S1 Table, single determination 1 of 3, unit inferred): 3.02 µM; IC50 ([2]; IC50 (second replicate column), S1 Table, single determination 2 of 3, unit inferred): 2.91 µM; IC50 ([2]; IC50 (third replicate column), S1 Table, single determination 3 of 3, unit inferred): 4.08 µM; IC50 ([2]; IC50, mean±SD, tested in triplicate, xanthine substrate, 37°C, PBS pH 7.4): 3.34 ± 0.53 µM; IC50 ([2]; IC50 mean, S1 Table, mean of three determinations, unit inferred): 3.34 µM
